Assay: Solubility of Ethylhexyl Triazone in solvents (visual assessment)
Type: physicochemical
Method: The solubility of Ethylhexyl Triazone in the systems indicated can be determined as follows:
The test substance is initially incorporated into the solvent (for example cosmetic emollient, as indicated in the table) at room temperature (about 20° C.-25° C.) with stirring in small beakers on a heatable magnetic stirrer (the stirring time here should not exceed about 30 min.). The assessment is carried out visually, i.e. it is checked whether a completely clear solution and without evident particles is present. The amounts, conditions and stirring times employed should be noted. If the substance is readily soluble, the concentration is increased by subsequent incorporation of further substance, for example by addition in 0.1 g steps with stirring. […] The assessment is carried out visually, if necessary with the aid of a microscope with lambda plate.

CCCCC(CC)COC(=O)c1ccc(Nc2nc(Nc3ccc(C(=O)OCC(CC)CCCC)cc3)nc(Nc3ccc(C(=O)OCC(CC)CCCC)cc3)n2)cc1 (centres unmarked) [Ethylhexyl Triazone, 2,4,6-tris[anilino(p-carbo-2′-ethyl-1′-hexyloxy)]-1,3,5-triazine]
solubility at room temperature (in Spectrasolv DMDA, room temperature (20° C. to 25° C.)): about 55 % by weight
Ethylhexyl Triazone solubility at 25° C. (solvent C12-13 Alkyl Lactate): 22%
Ethylhexyl Triazone solubility at 25° C. (solvent Di-C12-13 Alkyl Tartrate): 35%
Ethylhexyl Triazone solubility at 25° C. (solvent Dioctyl Malate): 13%
Ethylhexyl Triazone solubility at 25° C. (solvent Spectrasolv DMDA): about 55%

— patent US20170105910A1, “UV FILTER CAPSULE” (BASF SE, priority 2007, published 2017)
